According to patent US20100215579A1, “PHEN-NAPHTHALENE AND PHEN-QUINOLINE DERIVATIVES AND THEIR USE FOR BINDING AND IMAGING AMYLOID PLAQUES” (The Trustees of the University of Pennsylvania, priority 2007, published 2010):

How the values were obtained:
[1] = biological target: T1, amyloid plaques (Homo sapiens, UniProt P05067); assay: Ki values of Phen-Nap, Nap-Phen derivatives (Ki binding data)
T1 construct: fibrillary Aβ plaques consisting predominately of aggregates of Aβ40 and Aβ42 peptides

[2] = Biodistribution in ICR mice after an iv injection; format: in vivo
Description: Biodistribution in ICR Mice After an iv Injection of [^18F][4-(6-{2-[2-(2-Fluoro-ethoxy)-ethoxy]-ethoxy}-naphthalen-2-yl)-phenyl]-methyl-amine in 1% EtOH/0.1% BSA in Water
(% dose/organ, avg of 3 mice±SD)
(% dose/g, avg of 3 mice±SD)
Biodistribution in ICR Mice After an iv Injection of [^18F]19a in 3% EtOH/0.1% BSA in Water
Biodistribution in ICR Mice After an iv Injection of [^18F]34a in 5% EtOH/0.1% BSA in Water
Biodistribution in ICR Mice After an iv Injection of [^18F]32a in 1% EtOH/0.1% BSA in Water

[3] = Blood, 2 min after iv injection
[4] = Blood, 30 min after iv injection
[5] = Bone, 30 min after iv injection
[6] = Brain, 2 min after iv injection
[7] = Brain, 30 min after iv injection
[8] = Heart, 2 min after iv injection
[9] = Heart, 30 min after iv injection
[10] = Kidney, 2 min after iv injection
[11] = Kidney, 30 min after iv injection
[12] = Kidney, 1 hr after iv injection
[13] = Kidney, 2 hr after iv injection
[14] = Liver, 2 min after iv injection
[15] = Liver, 30 min after iv injection
[16] = Lung, 30 min after iv injection
[17] = Muscle, 2 min after iv injection
[18] = Muscle, 30 min after iv injection
[19] = Muscle, 1 hr after iv injection
[20] = Muscle, 2 hr after iv injection
[21] = Skin, 30 min after iv injection
[22] = Spleen, 2 min after iv injection
[23] = Spleen, 30 min after iv injection
[24] = Spleen, 1 hr after iv injection
[25] = Spleen, 2 hr after iv injection

T1 sequence (P05067 672-713 limits assumed): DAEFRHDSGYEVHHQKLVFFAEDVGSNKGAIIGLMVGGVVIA
T1 sequence (P05067 672-711 limits assumed): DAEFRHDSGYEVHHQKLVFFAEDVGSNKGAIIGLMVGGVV

## Nc1ccc(-c2ccc3cc(OCCOCCOCCF)ccc3c2)cc1 [Compound 11a, 4-(6-(2-(2-(2-fluoroethoxy)ethoxy)ethoxy)naphthalen-2-yl)benzenamine]
[1]
  Ki: 12.5 ± 1.2 nM

## Nc1ccc(-c2ccc3cc(OCCOCCOCCO)ccc3c2)cc1 [Compound 11b, 2-(2-(2-(6-(4-aminophenyl)naphthalen-2-yloxy)ethoxy)ethoxy)ethanol]
[1]
  Ki: 22 nM

## CN(C)c1ccc(-c2ccc3cc(OCCOCCOCCF)ccc3c2)cc1 [Compound 12a, 4-(6-(2-(2-(2-fluoroethoxy)ethoxy)ethoxy)naphthalen-2-yl)-N,N-dimethylbenzenamine]
[1]
  Ki: 3.1 nM

## CNc1ccc(-c2ccc3cc(OCCOCCOCCO)ccc3c2)cc1 [Compound 13b, 2-(2-(2-(6-(4-(methylamino)phenyl)naphthalen-2-yloxy)ethoxy)ethoxy)ethanol]
[1]
  Ki: 1 nM

## Nc1ccc2cc(-c3ccc(O)cc3)ccc2c1 [Compound 16, 4-(6-aminonaphthalen-2-yl)phenol]
[1]
  Ki: 33.5 ± 11 nM

## Nc1ccc2cc(-c3ccc(OCCOCCOCCF)cc3)ccc2c1 [Compound 17a, 6-(4-(2-(2-(2-fluoroethoxy)ethoxy)ethoxy)phenyl)naphthalen-2-amine]
[1]
  Ki: 20 ± 5 nM

## Nc1ccc2cc(-c3ccc(OCCOCCOCCO)cc3)ccc2c1 [Compound 17b, 2-(2-(2-(4-(6-aminonaphthalen-2-yl)phenoxy)ethoxy)ethoxy)ethanol]
[1]
  Ki: 27 nM

## CN(C)c1ccc2cc(-c3ccc(OCCOCCOCCF)cc3)ccc2c1 [Compound 18a, 6-(4-(2-(2-(2-fluoroethoxy)ethoxy)ethoxy)phenyl)-N,N-dimethylnaphthalen-2-amine]
[1]
  Ki: 5.6 nM

## CN(C)c1ccc2cc(-c3ccc(OCCOCCOCCO)cc3)ccc2c1 [Compound 18b, 2-(2-(2-(4-(6-(dimethylamino)naphthalen-2-yl)phenoxy)ethoxy)ethoxy)ethanol]
[1]
  Ki: 6.5 nM

## CNc1ccc2cc(-c3ccc(OCCOCCOCCF)cc3)ccc2c1 [Compound 19a, 6-(4-(2-(2-(2-fluoroethoxy)ethoxy)ethoxy)phenyl)-N-methylnaphthalen-2-amine]
[1]
  Ki: 3 nM

## CNc1ccc2cc(-c3ccc(OCCOCCOCCO)cc3)ccc2c1 [Compound 19b, 2-(2-(2-(4-(6-(methylamino)naphthalen-2-yl)phenoxy)ethoxy)ethoxy)ethanol]
[1]
  Ki: 6 nM

## COc1ccc(-c2ccc3cc(N(C)C)ccc3c2)cc1 [Compound 23, 6-(4-methoxyphenyl)-N,N-dimethylnaphthalen-2-amine]
[1]
  Ki: 1.4 nM

## CN(C)c1ccc2cc(-c3ccc(O)cc3)ccc2c1 [Compound 24, 4-(6-(dimethylamino)naphthalen-2-yl)phenol]
[1]
  Ki: 4.2 nM

## COc1ccc(-c2ccc3cc(O)ccc3c2)cc1 [Compound 25, 6-(4-methoxyphenyl)naphthalen-2-ol]
[1]
  Ki: 1.5 nM

## Oc1ccc(-c2ccc3cc(OCCOCCOCCF)ccc3c2)cc1 [Compound 26, 4-(6-(2-(2-(2-fluoroethoxy)ethoxy)ethoxy)naphthalen-2-yl)phenol]
[1]
  Ki: 16.5 nM

## Oc1ccc2cc(-c3ccc(OCCOCCOCCF)cc3)ccc2c1 [Compound 28, 6-(4-(2-(2-(2-fluoroethoxy)ethoxy)ethoxy)phenyl)naphthalen-2-ol]
[1]
  Ki: 16 nM

## CN(C)c1ccc(-c2ccc3nc(OCCOCCOCCF)ccc3c2)cc1 [Compound 32a, 4-(2-(2-(2-(2-fluoroethoxy)ethoxy)ethoxy)quinolin-6-yl)-N,N-dimethylbenzenamine]
[1]
  Ki: 4.4 nM

## CN(C)c1ccc(-c2ccc3nc(OCCOCCOCCO)ccc3c2)cc1 [Compound 32b, 2-(2-(2-(6-(4-(dimethylamino)phenyl)quinolin-2-yloxy)ethoxy)ethoxy)ethanol]
[1]
  Ki: 4.7 nM

## Nc1ccc(-c2ccc3nc(OCCOCCOCCF)ccc3c2)cc1 [Compound 33a, 4-(2-(2-(2-(2-fluoroethoxy)ethoxy)ethoxy)quinolin-6-yl)benzenamine]
[1]
  Ki: 102 ± 32 nM

## Nc1ccc(-c2ccc3nc(OCCOCCOCCO)ccc3c2)cc1 [Compound 33b, 2-(2-(2-(6-(4-aminophenyl)quinolin-2-yloxy)ethoxy)ethoxy)ethanol]
[1]
  Ki: 109 nM

## CNc1ccc(-c2ccc3nc(OCCOCCOCCF)ccc3c2)cc1 [Compound 34a, 4-(2-(2-(2-(2-fluoroethoxy)ethoxy)ethoxy)quinolin-6-yl)-N-methylbenzenamine]
[1]
  Ki: 5.5 nM

## CNc1ccc(-c2ccc3nc(OCCOCCOCCO)ccc3c2)cc1 [Compound 34b, 2-(2-(2-(6-(4-(methylamino)phenyl)quinolin-2-yloxy)ethoxy)ethoxy)ethanol]
[1]
  Ki: 5 nM

## CNc1ccc(-c2ccc3cc(OCCOCCOCCF)ccc3c2)cc1 [[^18F][4-(6-{2-[2-(2-Fluoro-ethoxy)-ethoxy]-ethoxy}-naphthalen-2-yl)-phenyl]-methyl-amine]
[2]; [3]
  % dose/g: 2.08 ± 0.20 % dose/g
  % dose/organ: 3.50 ± 0.18 % dose/organ
[2]; [4]
  % dose/g: 1.72 ± 0.29 % dose/g
  % dose/organ: 2.99 ± 0.48 % dose/organ
[2]; Blood, 1 hr after iv injection
  % dose/g: 1.41 ± 0.33 % dose/g
  % dose/organ: 2.73 ± 0.41 % dose/organ
[2]; Blood, 2 hr after iv injection
  % dose/g: 2.22 ± 0.37 % dose/g
  % dose/organ: 3.59 ± 0.53 % dose/organ
[2]; Bone, 2 min after iv injection
  % dose/g: 2.14 ± 0.82 % dose/g
  % dose/organ: 7.38 ± 3.40 % dose/organ
[2]; [5]
  % dose/g: 0.97 ± 0.03 % dose/g
  % dose/organ: 3.36 ± 0.09 % dose/organ
[2]; Bone, 1 hr after iv injection
  % dose/g: 1.19 ± 0.21 % dose/g
  % dose/organ: 4.61 ± 0.36 % dose/organ
[2]; Bone, 2 hr after iv injection
  % dose/g: 2.18 ± 0.19 % dose/g
  % dose/organ: 7.07 ± 0.57 % dose/organ
[2]; [6]
  % dose/g: 7.26 ± 1.28 % dose/g
  % dose/organ: 3.43 ± 0.51 % dose/organ
[2]; [7]
  % dose/g: 2.15 ± 0.25 % dose/g
  % dose/organ: 0.95 ± 0.08 % dose/organ
[2]; Brain, 1 hr after iv injection
  % dose/g: 1.58 ± 0.18 % dose/g
  % dose/organ: 0.75 ± 0.06 % dose/organ
[2]; Brain, 2 hr after iv injection
  % dose/g: 1.91 ± 0.12 % dose/g
  % dose/organ: 0.88 ± 0.06 % dose/organ
[2]; [8]
  % dose/g: 5.44 ± 0.25 % dose/g
  % dose/organ: 0.63 ± 0.08 % dose/organ
[2]; [9]
  % dose/g: 2.04 ± 0.30 % dose/g
  % dose/organ: 0.23 ± 0.02 % dose/organ
[2]; Heart, 1 hr after iv injection
  % dose/g: 1.46 ± 0.24 % dose/g
  % dose/organ: 0.18 ± 0.01 % dose/organ
[2]; Heart, 2 hr after iv injection
  % dose/g: 1.79 ± 0.19 % dose/g
  % dose/organ: 0.19 ± 0.03 % dose/organ
[2]; [10]
  % dose/g: 8.88 ± 1.80 % dose/g
  % dose/organ: 3.27 ± 0.60 % dose/organ
[2]; [11]
  % dose/g: 3.98 ± 0.64 % dose/g
  % dose/organ: 1.45 ± 0.12 % dose/organ
[2]; [12]
  % dose/g: 2.75 ± 0.35 % dose/g
  % dose/organ: 1.05 ± 0.25 % dose/organ
[2]; [13]
  % dose/g: 2.52 ± 0.18 % dose/g
  % dose/organ: 0.88 ± 0.10 % dose/organ
[2]; [14]
  % dose/g: 19.7 ± 3.24 % dose/g
  % dose/organ: 26.5 ± 2.18 % dose/organ
[2]; [15]
  % dose/g: 13.4 ± 1.30 % dose/g
  % dose/organ: 17.1 ± 1.54 % dose/organ
[2]; Liver, 1 hr after iv injection
  % dose/g: 9.46 ± 1.50 % dose/g
  % dose/organ: 16.3 ± 1.39 % dose/organ
[2]; Liver, 2 hr after iv injection
  % dose/g: 11.9 ± 1.87 % dose/g
  % dose/organ: 13.5 ± 1.77 % dose/organ
[2]; Lung, 2 min after iv injection
  % dose/g: 5.73 ± 0.19 % dose/g
  % dose/organ: 1.08 ± 0.05 % dose/organ
[2]; [16]
  % dose/g: 2.78 ± 0.30 % dose/g
  % dose/organ: 0.53 ± 0.10 % dose/organ
[2]; Lung, 1 hr after iv injection
  % dose/g: 1.99 ± 0.26 % dose/g
  % dose/organ: 0.41 ± 0.05 % dose/organ
[2]; Lung, 2 hr after iv injection
  % dose/g: 2.44 ± 0.37 % dose/g
  % dose/organ: 0.48 ± 0.16 % dose/organ
[2]; [17]
  % dose/g: 1.21 ± 0.98 % dose/g
  % dose/organ: 11.8 ± 9.69 % dose/organ
[2]; [18]
  % dose/g: 1.27 ± 0.06 % dose/g
  % dose/organ: 12.7 ± 0.64 % dose/organ
[2]; [19]
  % dose/g: 0.92 ± 0.09 % dose/g
  % dose/organ: 10.3 ± 0.54 % dose/organ
[2]; [20]
  % dose/g: 0.97 ± 0.06 % dose/g
  % dose/organ: 9.00 ± 0.56 % dose/organ
[2]; Skin, 2 min after iv injection
  % dose/g: 1.01 ± 0.16 % dose/g
  % dose/organ: 3.66 ± 0.74 % dose/organ
[2]; [21]
  % dose/g: 1.90 ± 0.08 % dose/g
  % dose/organ: 7.08 ± 0.26 % dose/organ
[2]; Skin, 1 hr after iv injection
  % dose/g: 1.56 ± 0.18 % dose/g
  % dose/organ: 6.53 ± 0.12 % dose/organ
[2]; Skin, 2 hr after iv injection
  % dose/g: 1.32 ± 0.09 % dose/g
  % dose/organ: 4.60 ± 0.29 % dose/organ
[2]; [22]
  % dose/g: 5.11 ± 0.49 % dose/g
  % dose/organ: 0.47 ± 0.03 % dose/organ
[2]; [23]
  % dose/g: 2.12 ± 0.33 % dose/g
  % dose/organ: 0.23 ± 0.01 % dose/organ
[2]; [24]
  % dose/g: 1.81 ± 0.17 % dose/g
  % dose/organ: 0.23 ± 0.02 % dose/organ
[2]; [25]
  % dose/g: 2.08 ± 0.44 % dose/g
  % dose/organ: 0.19 ± 0.03 % dose/organ
